Test results taken from patent US9708336B2, “Metallo-beta-lactamase inhibitors” (priority 2014, dated 2017).
Read-outs that look alike come from different tables or passages of the source.

Key:
[1] = system: Escherichia coli expressing NDM-1 (CLB30016); experiment: Antibiotic potentiation activity: synergistic concentration (MITC95) with imipenem, OD600 growth; assay type: cell-based
Outline: (§1)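 In 1.1× CAMHB, clinical isolates from overnight plates were challenged with test compound alongside imipenem at an assay concentration of 4 μg/ml, sometimes 1 μg/ml. Plates sat covered at 35 °C for 22–24 h prior to spectrophotometric reading.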

[2] = system: Klebsiella pneumoniae expressing VIM-1 (IHMA599644); experiment: as above; assay type: cell-based
Outline: as §1

[3] = system: Serratia marcescens expressing IMP-1 (CL5741); experiment: as above; assay type: cell-based
Outline: as §1

VIM-1 = VIM-1 (Pseudomonas aeruginosa (strain ATCC 15692 / DSM 22644 / CIP 104116 / JCM 14847 / LMG 12228 / 1C / PRS 101 / PAO1), UniProt A0A0F7KYQ8); experiment: Enzyme activity: determination of IC50, fluorescence assay with CCF2-FA substrate (VIM-1); assay type: biochemical
NDM-1 = NDM-1 (Klebsiella pneumoniae, UniProt C7C422); experiment: biochemical; assay type: biochemical
NDM-1, sequence (C7C422 whole entry, looked up, species assumed): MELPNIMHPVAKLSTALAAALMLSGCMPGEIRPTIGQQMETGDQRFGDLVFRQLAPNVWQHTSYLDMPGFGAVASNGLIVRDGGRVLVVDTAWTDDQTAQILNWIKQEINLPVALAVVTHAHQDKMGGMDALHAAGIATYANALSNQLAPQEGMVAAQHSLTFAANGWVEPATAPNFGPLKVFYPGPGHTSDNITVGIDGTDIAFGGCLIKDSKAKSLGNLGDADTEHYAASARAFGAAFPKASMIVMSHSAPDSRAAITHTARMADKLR

IMP-1 = IMP-1 (Serratia marcescens, UniProt P52699); experiment: biochemical; assay type: biochemical; settings: read-out: IMP-1 IC50
IMP-1, sequence (P52699 whole entry, looked up): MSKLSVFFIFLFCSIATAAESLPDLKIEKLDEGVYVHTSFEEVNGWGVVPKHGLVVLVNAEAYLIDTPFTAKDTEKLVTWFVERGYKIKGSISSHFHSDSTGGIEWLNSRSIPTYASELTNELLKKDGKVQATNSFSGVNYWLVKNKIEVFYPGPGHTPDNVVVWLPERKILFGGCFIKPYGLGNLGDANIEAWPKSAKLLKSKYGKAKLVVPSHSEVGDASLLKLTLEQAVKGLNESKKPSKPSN
Description: Enzyme Activity: Determination of IC50
The Class B enzyme activities were measured in the presence of the test inhibitor in a fluorescence assay against a commercially available substrate consisting of a cephalosporin core linking 7-hydroxycoumarin to fluorescein (CCF2-FA). The enzyme (NDM-1, IMP-1 or VIM-1) and the substrate were diluted in 100 mM KH2PO4 buffer (pH 7) containing 0.005% Tween-20 and 10 μM ZnSO4. […] The test inhibitor was dissolved in dimethylsulfoxide and diluted 1:50 in the assay, resulting in a final concentration range of 20 uM to 0.00063 uM. In a 384-well microplate, the test inhibitor was incubated with the metallo-β-lactamase enzyme and the substrate for 2 hours at 25° C. Fluorescence at 460 nm following excitation at 405 nm was measured. The IC50 value was determined from semi-logarithmic plots of enzyme inhibition versus inhibitor concentration, with a curve generated using a 4-parameter fit.

[4] = Escherichia coli expressing NDM-1 (CLB30016), 95% growth inhibition
[5] = Klebsiella pneumoniae expressing VIM-1 (IHMA599644), 95% growth inhibition
[6] = Serratia marcescens expressing IMP-1 (CL5741), 95% growth inhibition
[7] = VIM-1 enzyme, CCF2-FA fluorescence assay, read-out: VIM-1 IC50
[8] = NDM-1 enzyme, CCF2-FA fluorescence assay, read-out: NDM-1 IC50
[9] = IMP-1 enzyme, CCF2-FA fluorescence assay
[10] = (CLB30016, NDM-1), 95% growth inhibition
[11] = Klebsiella pneumoniae IHMA599644 (VIM-1), 95% growth inhibition
[12] = Serratia marcescens CL5741 (IMP-1), 95% growth inhibition
[13] = VIM-1 enzyme, CCF2-FA substrate, read-out: VIM-1 IC50
[14] = NDM-1 enzyme, CCF2-FA substrate, read-out: NDM-1 IC50
[15] = IMP-1 enzyme, CCF2-FA substrate
[16] = CLB30016 (NDM-1), 95% inhibition of bacterial growth
[17] = IHMA599644 (VIM-1), 95% inhibition of bacterial growth
[18] = CL5741 (IMP-1), 95% inhibition of bacterial growth
[19] = fluorescence assay with CCF2-FA substrate, read-out: VIM-1 IC50
[20] = fluorescence assay with CCF2-FA substrate, read-out: NDM-1 IC50
[21] = fluorescence assay with CCF2-FA substrate
[22] = concentration giving 95% inhibition of bacterial growth

Nc1ccc(-c2cccc(S(N)(=O)=O)c2-c2nnn[nH]2)c2ccncc12 [Example 415, 3-(8-amino-5-isoquinolyl)-2-(1H-tetrazol-5-yl)benzenesulfonamide]
Escherichia coli MITC95 [1, 4]: 0.5859 µM
Klebsiella pneumoniae MITC95 [2, 5]: 3.125 µM
Serratia marcescens MITC95 [3, 6]: 1.172 µM
IC50 (VIM-1; [7]): 0.0011 µM
IC50 (NDM-1; [8]): 0.00058 µM
IC50 (IMP-1; [9]): 0.0323 µM

NC[C@H]1CC[C@@H](Cc2ccc(-c3ccc(C4CCNC4)cc3)c(-c3nnn[nH]3)c2S(N)(=O)=O)CC1 (stereo partly drawn) [Example 587, 4-(((1s,4s)-4-(aminomethyl)cyclohexyl)methyl)-4′-(pyrrolidin-3-yl)-2-(1H-tetrazol-5-yl)-[1,1′-biphenyl]-3-sulfonamide]
Escherichia coli MITC95 [1, 10]: 0.7813 µM
Klebsiella pneumoniae MITC95 [2, 11]: 6.25 µM
Serratia marcescens MITC95 [3, 12]: 1.563 µM
IC50 (VIM-1; [13]): 0.0115 µM
IC50 (NDM-1; [14]): 0.000798 µM
IC50 (IMP-1; [15]): 0.00283 µM

CN(CCC(=O)O)Cc1ccc(-c2cccc(S(N)(=O)=O)c2-c2nnn[nH]2)cc1 [Example 361, N-methyl-N-{[3′-sulfamoyl-2′-(1H-tetrazol-5-yl)biphenyl-4-yl]methyl}-beta-alanine]
Escherichia coli MITC95 [1, 4]: 2.344 µM
Klebsiella pneumoniae MITC95 [2, 5]: 25 µM
Serratia marcescens MITC95 [3, 6]: 3.125 µM
IC50 (VIM-1; [7]): 0.271 µM
IC50 (NDM-1; [8]): 0.0129 µM
IC50 (IMP-1; [9]): 0.139 µM

NS(=O)(=O)c1c(C[C@H]2CC[C@@H](N)CC2)ccc(-c2ccc(C3CCNC3)cc2)c1-c1nnn[nH]1 (stereo partly drawn) [Example 583, 4-(((1s,4s)-4-aminocyclohexyl)methyl)-4′-(pyrrolidin-3-yl)-2-(1H-tetrazol-5-yl)-[1,1′-biphenyl]-3-sulfonamide]
Escherichia coli MITC95 [1, 10]: 3.125 µM
Klebsiella pneumoniae MITC95 [2, 11]: 6.25 µM
Serratia marcescens MITC95 [3, 12]: 6.25 µM
IC50 (VIM-1; [13]): 0.0236 µM
IC50 (NDM-1; [14]): 0.00653 µM
IC50 (IMP-1; [15]): 0.012 µM

NS(=O)(=O)c1c(C(F)(F)F)ccc(N2CCCC(CCCO)C2)c1-c1nnn[nH]1 (stereo not drawn) [Example 769, 3-[3-(3-hydroxypropyl)piperidin-1-yl]-2-(1H-tetrazol-5-yl)-6-(trifluoromethyl) benzenesulfonamide]
Escherichia coli MITC95 [1, 16]: 100 µM
Klebsiella pneumoniae MITC95 [2, 17]: 50 µM
Serratia marcescens MITC95 [3, 18]: 25 µM
IC50 (VIM-1; [19]): 0.000998 µM
IC50 (NDM-1; [20]): 0.00748 µM
IC50 (IMP-1; [21]): 0.0114 µM

NS(=O)(=O)c1c(C(F)(F)F)ccc([C@H]2CC[C@H](NC3CCNCC3)CC2)c1-c1nnn[nH]1 [Example 698, 3-[4-(piperidin-4-ylamino)cyclohexyl]-2-(1H-tetrazol-5-yl)-6-(trifluoromethyl)benzene sulfonamide]
Escherichia coli MITC95 [1, 10]: 0.7813 µM
Klebsiella pneumoniae MITC95 [2, 11]: 3.125 µM
Serratia marcescens MITC95 [3, 12]: 3.125 µM
IC50 (VIM-1; [13]): 0.00652 µM
IC50 (NDM-1; [14]): 0.01 µM
IC50 (IMP-1; [15]): 0.0296 µM

NCCCCN1CCN(c2ccc(C(F)(F)F)c(S(N)(=O)=O)c2-c2nnn[nH]2)CC1 [Example 765, 3-[4-(4-aminobutyl)piperazin-1-yl]-2-(1H-tetrazol-5-yl)-6-(trifluoromethyl) benzenesulfonamide]
Escherichia coli MITC95 [1, 16]: 6.25 µM
Klebsiella pneumoniae MITC95 [2, 17]: 25 µM
Serratia marcescens MITC95 [3, 18]: 3.125 µM
IC50 (VIM-1; [19]): 0.125 µM
IC50 (NDM-1; [20]): 0.0933 µM
IC50 (IMP-1; [21]): 0.131 µM

NS(=O)(=O)c1c(C(F)(F)F)ccc([C@H]2CC[C@H](C3=NCCN3)CC2)c1-c1nnn[nH]1 [Example 506, 3-(trans 4-(4,5-dihydro-1H-imidazol-2-yl)cyclohexyl)-2-(1H-tetrazol-5-yl)-6-(trifluoromethyl)benzenesulfonamide]
Escherichia coli MITC95 [1, 10]: 4.688 µM
Klebsiella pneumoniae MITC95 [2, 11]: 100 µM
Serratia marcescens MITC95 [3, 12]: 6.25 µM
IC50 (VIM-1; VIM-1 IC50, VIM-1 enzyme, CCF2-FA substrate): 0.0414 µM
IC50 (NDM-1): 0.00222 µM
IC50 (IMP-1; [15]): 0.0357 µM

NS(=O)(=O)c1c(C(F)(F)F)ccc(-c2ccc(CO)cc2)c1-c1nn[nH]n1 [Example 445, 4′-(hydroxymethyl)-2-(2H-tetrazol-5-yl)-4-(trifluoromethyl)-[1,1′-biphenyl]-3-sulfonamide]
Escherichia coli MITC95 [1, 4]: 1.547 µM
Klebsiella pneumoniae MITC95 [2, 5]: 4.688 µM
Serratia marcescens MITC95 [3, 6]: 0.125 µM
IC50 (VIM-1; [7]): 0.00134 µM
IC50 (NDM-1; [8]): 0.00128 µM
IC50 (IMP-1; [9]): 0.00117 µM

NS(=O)(=O)c1cccc(-c2cnc(NC3CC3)nc2)c1-c1nnn[nH]1 [Example 123, 3-(2-(cyclopropylamino)pyrimidin-5-yl)-2-(1H-tetrazol-5-yl)benzenesulfonamide]
Escherichia coli expressing NDM-1 (CLB 30016) MITC95 [1, 22]: 1.563 µM
Klebsiella pneumoniae expressing VIM-1 (IHMA 599644) MITC95 [2, 22]: >200 µM
Serratia marcescens expressing IMP-1 (CL5741) MITC95 [3, 22]: 18.75 µM
IC50 (VIM-1; [19]): 0.309 µM
IC50 (NDM-1; [20]): 0.0083 µM
IC50 (IMP-1; [21]): 0.415 µM

NC(=O)C1CN(Cc2ccc(-c3cccc(S(N)(=O)=O)c3-c3nnn[nH]3)cc2)C1 [Example 362, 1-{[3′-sulfamoyl-2′-(1H-tetrazol-5-yl)biphenyl-4-yl]methyl}azetidine-3-carboxamide]
Escherichia coli MITC95 [1, 4]: 0.7813 µM
Klebsiella pneumoniae MITC95 [2, 5]: 75 µM
Serratia marcescens MITC95 [3, 6]: 3.125 µM
IC50 (VIM-1; VIM-1 IC50, VIM-1 enzyme, CCF2-FA fluorescence assay): 0.494 µM
IC50 (NDM-1; [8]): 0.0113 µM
IC50 (IMP-1; [9]): 0.116 µM

CN(C)C1(C)CN(c2ccc(-c3cccc(S(N)(=O)=O)c3-c3nnn[nH]3)cn2)C1 [Example 625, 3-[6-[3-(dimethylamino)-3-methyl-azetidin-1-yl]-3-pyridyl]-2-(1H-tetrazol-5-yl)benzenesulfonamide]
Escherichia coli MITC95 [1, 10]: 2.344 µM
Klebsiella pneumoniae MITC95 [2, 11]: >200 µM
Serratia marcescens MITC95 [3, 12]: 12.5 µM
IC50 (VIM-1; [13]): 1.35 µM
IC50 (NDM-1; [14]): 0.037 µM
IC50 (IMP-1; [15]): 0.203 µM

NS(=O)(=O)c1c(C(F)(F)F)ccc(N2CCC(C3CCNCC3)CC2)c1-c1nnn[nH]1 [Example 779, 3-[4-(4-piperidyl)-1-piperidyl]-2-(1H-tetrazol-5-yl)-6-(trifluoromethyl) benzenesulfonamide]
Escherichia coli MITC95 [1, 16]: 1.172 µM
Klebsiella pneumoniae MITC95 [2, 17]: 2.344 µM
Serratia marcescens MITC95 [3, 18]: 0.3906 µM
IC50 (VIM-1; [19]): 0.00011 µM
IC50 (NDM-1; [20]): 0.00643 µM
IC50 (IMP-1; [21]): 0.0067 µM

NS(=O)(=O)c1c(C(F)(F)F)ccc([C@H]2CC[C@H](NC3CC4(CCNCC4)C3)CC2)c1-c1nnn[nH]1 [Example 685, 3-[4-(7-azaspiro[3.5]non-2-ylamino)cyclohexyl]-2-(1H-tetrazol-5-yl)-6-(trifluoromethyl)benzene sulfonamide]
Escherichia coli MITC95 [1, 10]: 1.563 µM
Klebsiella pneumoniae MITC95 [2, 11]: 25 µM
Serratia marcescens MITC95 [3, 12]: 6.25 µM
IC50 (VIM-1; [13]): 0.00488 µM
IC50 (NDM-1; [14]): 0.03 µM
IC50 (IMP-1; [15]): 0.0758 µM

CC(C)(C)C(=O)NCC1CCN(c2ccc(C(F)(F)F)c(S(N)(=O)=O)c2-c2nnn[nH]2)CC1 [Example 760, 2,2-dimethyl-N-({1-[3-sulfamoyl-2-(1H-tetrazol-5-yl)-4-(trifluoromethyl)phenyl]piperidin-4-yl}methyl) propanamide]
Escherichia coli MITC95 [1, 16]: 100 µM
Klebsiella pneumoniae MITC95 [2, 17]: 100 µM
Serratia marcescens MITC95 [3, 18]: 25 µM
IC50 (VIM-1; [19]): 0.00151 µM
IC50 (NDM-1; [20]): 0.00564 µM
IC50 (IMP-1; [21]): 0.00208 µM

N[C@@]1(c2ccc(-c3ccc(C(F)(F)F)c(S(N)(=O)=O)c3-c3nn[nH]n3)cc2)CCNC1 [Example 548, 3-[4-[(3R)-3-aminopyrrolidin-3-yl]phenyl]-2-(2H-tetrazol-5-yl)-6-(trifluoromethyl)benzenesulfonamide]
Escherichia coli MITC95 [1, 10]: 3.125 µM
Klebsiella pneumoniae MITC95 [2, 11]: 1.563 µM
Serratia marcescens MITC95 [3, 12]: 3.125 µM
IC50 (VIM-1; [13]): 0.000519 µM
IC50 (NDM-1; [14]): 0.00754 µM
IC50 (IMP-1; [15]): 0.0105 µM

Nc1ccc2cccc(-c3ccc(C(F)(F)F)c(S(N)(=O)=O)c3-c3nn[nH]n3)c2n1 [Example 554, 3-(2-amino-8-quinolyl)-2-(2H-tetrazol-5-yl)-6-(trifluoromethyl)benzenesulfonamide]
Escherichia coli MITC95 [1, 10]: 3.125 µM
Klebsiella pneumoniae MITC95 [2, 11]: 3.125 µM
Serratia marcescens MITC95 [3, 12]: 1.563 µM
IC50 (VIM-1; [13]): 0.000363 µM
IC50 (NDM-1; [14]): 0.000115 µM
IC50 (IMP-1; [15]): 0.000818 µM

NS(=O)(=O)c1cccc(-c2ccc(CN3CNC(=O)C3)cc2)c1-c1nnn[nH]1 [Example 342, 4′-[(4-oxoimidazolidin-1-yl)methyl]-2-(1H-tetrazol-5-yl)biphenyl-3-sulfonamide]
Escherichia coli MITC95 [1, 4]: 3.125 µM
Klebsiella pneumoniae MITC95 [2, 5]: 25 µM
Serratia marcescens MITC95 [3, 6]: 0.7813 µM
IC50 (VIM-1; [7]): 0.0804 µM
IC50 (NDM-1; [8]): 0.00464 µM
IC50 (IMP-1; [9]): 0.046 µM
